Tests used:
Cannabinoid receptor 1 [1] = target: Cannabinoid receptor 1 (Homo sapiens, UniProt P21554); assay: Binding affinity to human CB1 receptor
Cannabinoid receptor 2 [2] = target: Cannabinoid receptor 2 (Homo sapiens, UniProt P34972); assay: Binding affinity to human CB2 receptor
[3] = Total clearance in rat at 0.5 mg/kg, iv and 1 mg/kg, po; assay type: ADME, organism-based; conditions: in vivo
[4] = Oral bioavailability in rat at 1 mg/kg; assay type: ADME, organism-based; conditions: in vivo
[5] = AUC in rat at 30 mg/kg, po; assay type: ADME, organism-based; parameters: dose 30 mg/kg, route oral; conditions: plasma
[6] = Half life in rat at 2 mg/kg, iv and 30 mg/kg, po; assay type: ADME, organism-based; conditions: in vivo
Cannabinoid receptor 2 [7] = target: Cannabinoid receptor 2 (Mus musculus, UniProt P47936); assay: Binding affinity to mouse CB2 receptor
[8] = Total clearance in rat at 2 mg/kg, iv and 30 mg/kg, po; assay type: ADME, organism-based; conditions: in vivo
Mus musculus [9] = assay: Analgesic activity against formalin-induced inflammatory pain in po dosed mouse; assay type: functional
Cannabinoid receptor 1 [10] = target: Cannabinoid receptor 1 (Mus musculus, UniProt P47746); assay: Binding affinity to mouse CB1 receptor
Mus musculus [11] = assay: Analgesic activity against formalin-induced acute pain in iv dosed mouse; assay type: functional
Mus musculus [12] = assay: Analgesic activity against formalin-induced inflammatory pain in iv dosed mouse; assay type: functional
Mus musculus [13] = assay: Analgesic activity against formalin-induced acute pain in po dosed mouse; assay type: functional
[14] = Oral bioavailability in rat at 30 mg/kg; assay type: ADME, organism-based; conditions: in vivo

Chain of Cannabinoid receptor 2 (Mus musculus, UniProt P47936) (P47936 whole entry): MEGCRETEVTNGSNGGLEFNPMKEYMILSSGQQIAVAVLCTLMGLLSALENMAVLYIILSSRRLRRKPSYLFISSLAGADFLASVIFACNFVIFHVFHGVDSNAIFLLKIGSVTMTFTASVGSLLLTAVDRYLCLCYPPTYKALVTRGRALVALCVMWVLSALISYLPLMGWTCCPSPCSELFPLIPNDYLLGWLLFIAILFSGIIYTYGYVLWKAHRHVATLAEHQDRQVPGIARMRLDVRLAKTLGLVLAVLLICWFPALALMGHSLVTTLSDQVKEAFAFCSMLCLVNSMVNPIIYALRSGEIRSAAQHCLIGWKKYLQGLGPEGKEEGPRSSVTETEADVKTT
Chain of Cannabinoid receptor 1 (Mus musculus, UniProt P47746) (P47746 whole entry): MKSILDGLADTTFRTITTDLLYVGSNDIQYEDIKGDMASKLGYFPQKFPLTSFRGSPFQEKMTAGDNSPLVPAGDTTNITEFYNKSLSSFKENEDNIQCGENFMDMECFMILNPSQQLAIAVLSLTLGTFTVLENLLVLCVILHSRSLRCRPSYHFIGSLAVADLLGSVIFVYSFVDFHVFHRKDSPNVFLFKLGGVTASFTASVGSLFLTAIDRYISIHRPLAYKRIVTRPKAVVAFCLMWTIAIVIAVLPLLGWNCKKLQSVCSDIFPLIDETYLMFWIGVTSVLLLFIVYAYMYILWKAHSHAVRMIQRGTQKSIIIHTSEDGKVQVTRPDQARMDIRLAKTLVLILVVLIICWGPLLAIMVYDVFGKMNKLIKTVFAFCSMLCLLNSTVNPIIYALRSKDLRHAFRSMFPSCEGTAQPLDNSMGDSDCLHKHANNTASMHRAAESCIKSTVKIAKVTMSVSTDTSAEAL
Chain of Cannabinoid receptor 1 (Homo sapiens, UniProt P21554) (P21554 whole entry): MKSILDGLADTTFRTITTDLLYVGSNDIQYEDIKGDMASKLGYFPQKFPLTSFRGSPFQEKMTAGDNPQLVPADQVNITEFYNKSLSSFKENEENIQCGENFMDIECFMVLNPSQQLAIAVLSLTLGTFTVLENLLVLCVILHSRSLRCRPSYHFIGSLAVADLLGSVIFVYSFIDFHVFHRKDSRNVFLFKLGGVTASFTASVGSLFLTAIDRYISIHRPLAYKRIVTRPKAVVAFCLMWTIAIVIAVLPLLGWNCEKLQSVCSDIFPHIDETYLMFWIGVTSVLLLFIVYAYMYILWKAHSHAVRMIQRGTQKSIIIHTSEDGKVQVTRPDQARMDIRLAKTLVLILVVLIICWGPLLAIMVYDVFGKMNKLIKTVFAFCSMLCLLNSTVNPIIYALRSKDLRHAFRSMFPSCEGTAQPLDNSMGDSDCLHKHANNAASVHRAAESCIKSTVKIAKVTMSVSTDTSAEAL
Chain of Cannabinoid receptor 2 (Homo sapiens, UniProt P34972) (P34972 whole entry): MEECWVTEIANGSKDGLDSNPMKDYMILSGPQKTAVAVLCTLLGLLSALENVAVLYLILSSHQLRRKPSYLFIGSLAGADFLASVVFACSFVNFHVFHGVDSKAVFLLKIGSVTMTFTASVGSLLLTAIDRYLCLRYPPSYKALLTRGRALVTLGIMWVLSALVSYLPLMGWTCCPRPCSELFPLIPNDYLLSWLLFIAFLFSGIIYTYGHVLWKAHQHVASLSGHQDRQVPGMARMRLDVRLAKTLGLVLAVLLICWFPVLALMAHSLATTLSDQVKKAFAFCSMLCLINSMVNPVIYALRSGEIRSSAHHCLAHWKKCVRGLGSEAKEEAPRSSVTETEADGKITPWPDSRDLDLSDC

SMILES	Ki (Cannabinoid receptor 1 [1]) [nM]	Ki (Cannabinoid receptor 2 [2]) [nM]	clearance [3] [mL/min/kg]	bioavailability [4] [%]	other results
CSC(=S)N1CC2(CCCCC2)CS/C1=N\c1cccc(C(C)C)c1	100	2.5	–	–	–
COc1ccccc1/N=C1\SCC2(CCCCC2)CN1C(=S)SC	13	1.1	75.9	0.4	–
COc1cccc(/N=C2\SCC3(CCCCC3)CN2C(=S)SC)c1	108	1	45.1	13	–
COc1ccc(/N=C2\SCC3(CCCCC3)CN2C(=S)SC)cc1	671	3.8	–	–	–
CCCc1ccc(/N=C2\SCC3(CCCCC3)CN2C(=S)SC)cc1	514	7	–	–	–
CSC(=S)N1CC2(CCCCC2)CS/C1=N\c1ccc(C(F)(F)F)cc1	1730	18	–	–	–
CSC(=S)N1CC2(CCCCC2)CS/C1=N\c1cccc2c1CCCC2	15	0.2	19.1	44	AUC [5]: 1500 ng·h/mL; half-life [6]: 4.1 h; Ki (Cannabinoid receptor 2 [7]): 0.7 nM; clearance [8]: 23.3 mL/min/kg; ED50 (Mus musculus [9]): 4 mg/kg; Ki (Cannabinoid receptor 1 [10]): 6 nM; ED50 (Mus musculus [11]): 0.3 mg/kg; ED50 (Mus musculus [12]): 0.2 mg/kg; ED50 (Mus musculus [13]): 2.5 mg/kg; bioavailability [14]: 7%
CSC(=S)N1CC2(CCCCC2)CS/C1=N\c1ccc2c(c1)CCCC2	396	24	–	–	–
CSC(=S)N1CC2(CCCCC2)CS/C1=N\c1ccc(OC(F)(F)F)cc1	1500	6	7.4	24	AUC [5]: 3900 ng·h/mL; half-life [6]: 2.4 h; Ki (Cannabinoid receptor 2 [7]): 7 nM; clearance [8]: 25.9 mL/min/kg; ED50 (Mus musculus [9]): > 100 mg/kg; Ki (Cannabinoid receptor 1 [10]): 1210 nM; ED50 (Mus musculus [11]): > 20 mg/kg; ED50 (Mus musculus [12]): > 20 mg/kg; ED50 (Mus musculus [13]): > 100 mg/kg; bioavailability [14]: 20%
CCOc1ccccc1/N=C1\SCC2(CCCCC2)CN1C(=S)SC	358	6.3	–	–	–
CSC(=S)N1CC2(CCCCC2)CS/C1=N\c1ccccc1C(F)(F)F	418	1.1	–	–	–
CSC(=S)N1CC2(CCCCC2)CS/C1=N\c1cccc(C)c1C	114	1	–	–	–
CSC(=S)N1CC2(CCCCC2)CS/C1=N\c1cccc2ccccc12	30	6	17.7	53	AUC [5]: 6100 ng·h/mL; half-life [6]: 1.5 h; Ki (Cannabinoid receptor 2 [7]): 4 nM; clearance [8]: 30.1 mL/min/kg; ED50 (Mus musculus [9]): 1 mg/kg; Ki (Cannabinoid receptor 1 [10]): 6.8 nM; ED50 (Mus musculus [11]): 0.4 mg/kg; ED50 (Mus musculus [12]): 0.4 mg/kg; ED50 (Mus musculus [13]): 1.5 mg/kg; bioavailability [14]: 36%
CSC(=S)N1CC2(CCCCC2)CS/C1=N\c1cccc2nsnc12	44	1.3	60.4	–	–
CSC(=S)N1CC2(CCCCC2)CS/C1=N\c1cccc2nonc12	246	0.9	–	–	–
CSC(=S)N1CC(C)(C)CS/C1=N\c1ccccc1C(C)C	> 5000	–	63.4	10	–
CSC(=S)N1CC2(CC2)CS/C1=N\c1ccccc1C(C)C	–	65	85.1	14	–
CSC(=S)N1CC2(CCCC2)CS/C1=N\c1ccccc1C(C)C	541	1	54.2	8.9	–
CSC(=S)N1CC2(CCCCC2)CS/C1=N\c1cccc2c1CCCN2C	85	1.1	–	–	–
CSC(=S)N1CC2(CCCCC2)CS/C1=N\c1cccc2c1CCC2	243	5	–	–	–
CCC1(CC)CS/C(=N\c2ccccc2C(C)C)N(C(=S)SC)C1	> 5000	9	48.3	19	–
CSC(=S)N1CC2(CCCCC2)CS/C1=N\c1ccc(C(C)C)cc1	1260	23	–	–	–
CCc1ccc(/N=C2\SCC3(CCCCC3)CN2C(=S)SC)cc1	95	1.2	–	–	–
CSC(=S)N1CC2(CCCCC2)CS/C1=N\c1ccc(C#N)cc1	173	2.3	–	–	–
CSC(=S)N1CC2(CCCCC2)CS/C1=N\c1ccccc1OC(F)(F)F	711	12	–	–	–
CSC(=S)N1CC2(CCCCC2)CS/C1=N\c1cccc2ncccc12	763	11	121	42	–
CSC(=S)N1CC2(CCCCC2)CS/C1=N\c1ccccc1C(C)C	122	0.8	18.6	32	AUC [5]: 3200 ng·h/mL; half-life [6]: 2.5 h; Ki (Cannabinoid receptor 2 [7]): 1.2 nM; clearance [8]: 38.2 mL/min/kg; ED50 (Mus musculus [9]): 17.5 mg/kg; Ki (Cannabinoid receptor 1 [10]): 80 nM; ED50 (Mus musculus [11]): 1.2 mg/kg; ED50 (Mus musculus [12]): 1.1 mg/kg; ED50 (Mus musculus [13]): 17.5 mg/kg; bioavailability [14]: 24%
CCCCCc1cc(O)c2c(c1)OC(C)(C)[C@@H]1CCC(C)=C[C@@H]21 [DRONABINOL]	–	–	–	–	ED50 (Mus musculus [11]): 0.4 mg/kg; ED50 (Mus musculus [12]): 0.3 mg/kg
CN1CC[C@]23c4c5ccc(O)c4O[C@H]2[C@@H](O)C=C[C@H]3[C@H]1C5 [MORPHINE]	–	–	–	–	ED50 (Mus musculus [9]): 9.8 mg/kg; ED50 (Mus musculus [11]): 1.1 mg/kg; ED50 (Mus musculus [12]): 1.1 mg/kg; ED50 (Mus musculus [13]): 27.3 mg/kg

Source: ChEMBL document CHEMBL1149535, “2-Arylimino-5,6-dihydro-4H-1,3-thiazines as a new class of cannabinoid receptor agonists. Part 2: orally bioavailable compounds” (Bioorg Med Chem Lett, 2007)
